Data as given in patent publication US6060304A, “Method of producing conjugated fatty acids” (Wisconsin Alumni Research Foundation, priority 1998, dated 2000).

Tests used:
[1] = system: linoleate isomerase of L. reuteri PYR8; assay: Substrates tested with cells of L. reuteri PYR8, product analysed by GC; assay type: biochemical, Lactobacillus reuteri PYR8 (ATCC 55739); details: for Major Products (putative) of the linoleate isomerase: 0.2 mg substrate reacted with 20 mg PYR8 cells, GC; for Activity as substrate of the Lactobacillus: unsaturated fatty acids lacking double bonds at both positions 9 and 12; for Activity of the organism / consumption relative to other substrates: effect of extra double bonds at position 6 and/or 15
Description: ^a Each substrate (0.2 mg) was reacted with the cells (20 mg) of L.
reuteri PYR8, and product was analyzed by GC, as described in methods.
Fatty acids were extracted with chloroform:methanol (2:1) and 4% KCl. Hexadecanoic acid (HDA) was added as an internal standard. […] Fatty acid peaks were separated with a fused silica capillary column, 60 m by […] I.D. with a 0.25 μm film thickness (Supelco Park, Bellefonte, Pa.).

[2] = system: linoleate isomerase of L. reuteri PYR8; details: for Rate of converting: 36-hour PYR8 cells
Description: Fatty acids were extracted with chloroform:methanol (2:1) and 4% KCl. Hexadecanoic acid (HDA) was added as an internal standard. The extraction mix was centrifuged at 2000 g for 5 minutes, then the chloroform fraction containing the fatty acids (bottom fraction) was removed and dried down by nitrogen gas. The fatty acids were suspended in 4% HCl in anhydrous methanol, and were methylated in a 60° C. water bath for 20 minutes. Finally, drops of double distilled water (DDW) were added to the methylation tube and hexane was used to re-extract the fatty acid. After washing twice with DDW and dehydrating by sodium sulfate, 1-2 μl of the hexane fraction was injected into a model 5890 series II gas chromatograph fitted with a model 3396A integrator (Hewlett-Packard Company, Avondale, Pa.) for fatty acid analysis. Fatty acid peaks were separated with a fused silica capillary column, 60 m by […] I.D. with a 0.25 μm film thickness (Supelco Park, Bellefonte, Pa.).
Thirty-six-hour cultures were diluted in 0.1M Tris-HCl (pH 8.55) buffer to 1:10, 1:15, 1:20 (w/v). Five ml of each suspension were reacted with 2.0 mg of linoleic acid for 1, 2, or 3 hours at 12° C. At 1:15, five ml were incubated with 1.0 mg, 1.5 mg, 2.0 mg and 3.0 mg of alpha-linolenic acid for 1 hour, or with 2.0 mg of gamma-linolenic acid for 1, 2, 3, 4, or 24 hours at 4° C. Fatty acids were extracted with chloroform:methanol and assayed by the GC method.

mammary cancer = details: rodents; cited from earlier work
[3] = system: carcinogen-induced rat mammary tumors; details: cited from earlier work
[4] = rabbits fed an atherogenic diet; cited from earlier work
atherosclerosis = details: rabbits and hamsters; cited from earlier work
[5] = system: epidermal carcinogenesis and forestomach neoplasia; details: mice; cited from earlier work
[6] = mouse, rat and chick models; cited from earlier work
[7] = chicks, mice and rats; cited from earlier work

| Molecule | Major Products (putative) of the linoleate isomerase [1] | Rate of converting [2] | Activity as substrate of the Lactobacillus [1] | further results |
| --- | --- | --- | --- | --- |
| CCCCC/C=C\C/C=C\CCCCCCCC(=O)O [Linoleic acid] | cis9, trans11 isomer | 3.2 mg/hour/gram cells |  | Effect on mammary cancer (mammary cancer): associated with enhancing mammary cancer |
| CCCCC/C=C\C/C=C\C/C=C\C/C=C\CCCC(=O)O [Arachidonic acid] | None |  | Inactive |  |
| CC/C=C\C/C=C\C/C=C\CCCCCCCC(=O)O [Alpha-linolenic acid] | cis9, trans11, cis15 | 8.0 mg/hour/gram cells |  | Activity of the organism / consumption relative to other substrates [1]: promoted; Amount of substrate converted in one hour ([2]; dilution 1:15, five ml, 4° C.): 2.5 mg |
| Octadecanoic acid | None |  | Inactive |  |
| CCCCC/C=C\C/C=C\C/C=C\CCCCC(=O)O [Gamma-linolenic acid] | cis6, cis9, trans11 | less than 0.25 mg/hour/gram cells |  | Activity of the organism / consumption relative to other substrates [1]: reduced; Conversion to cis-6, cis-9, trans-11 isomer in 24 hours ([2]; dilution 1:15, 2.0 mg substrate, 4° C.): unable to convert |
| Conjugated linoleic acid [CLA] |  |  |  | Inhibition of carcinogen-induced mammary tumors [3]: effective inhibitor; Ratio of LDL-cholesterol to HDL-cholesterol [4]: can decrease; Inhibition of atherosclerosis (atherosclerosis): inhibits atherosclerosis; Inhibition of epidermal carcinogenesis and forestomach neoplasia [5]: effective inhibitor; Body fat [6]: reduces body fat; Prevention of adverse effects caused by immune stimulation [7]: can prevent adverse effects |
| CCCCCCCC/C=C\CCCCCCCC(=O)O [Oleic acid] | None |  | Inactive |  |
